Assays:
ob/ob mice = experiment: Serum ALT and AST (hepatic injury) in ob/ob mice; assay type: in vivo; settings: for serum AST: vehicle group A 710
Experimental: (§1) The effect of β-glycolipids on liver injury was evaluated by serum aspartyl transaminase (AST) and alanine aminotransferase (ALT) activities, which were determined by a clinical chemistry analyzer, Reflovet Plus (Roche Diagnostics, GmbH, Mannheim, Germany).
Therefore, five groups of male C57BL/6 Ob/Ob mice were studied. Mice (6 per group) were fed (per os) daily for 4 weeks with 15 or 45 μg of GC (groups B and C, respectively) and 15 or 45 μg of ALIB-97 (groups D and E, respectively). Control mice (Group A) were administered vehicle only.

mouse splenocytes = experiment: In vitro stimulation of splenocytes: supernatant IFN-γ by ELISA; assay type: cell-based
Experimental: Splenocytes were prepared as described above and plated at 2.0×10^5 cells per well in 96-well plates in RPMI-1640 supplemented with 5% FCS, […] 2-mercaptoethanol, 2 mM glutamine, 1% sodium pyruvate, and antibiotics. Titrated volumes of GC, α-GalCer, and ALIB-97 diluted in DMSO were added at final concentrations of 100 ng, 1 μg, and 10 μg/ml. After 72 h of culture, 1 μCi of [^3H] thymidine (Amersham Biosciences) was added to each well, and the cells were cultured for an additional 16 to 18 h. Cells were harvested with a cell harvester (Tomtec, Orange, Conn.), and the uptake of radioactivity was measured with a β-plate reader. To evaluate IFN-γ secretion in vitro, supernatants were harvested after 90 h of culture with glycolipids and stored until the cytokine levels were measured by ELISA.

IFN-γ = experiment: Serum IFN-γ by sandwich ELISA in ConA induced hepatitis; assay type: in vivo, mice
Experimental: Serum levels of IFN-γ, TGF-β, TNF-α IL-2, IL-4, IL-6, IL-10 and IL-12 were determined by “sandwich” ELISA, using commercial kits (Quantikine, R&D Systems, Minneapolis, Minn., USA). Serum insulin was also determined by “sandwich” ELISA too, using the commercial kit of Mercodia AB (Uppsala, Sweden) according to the manufacturer's instructions.
(§2) Assessment of the effect of any of the synthetic analogs on the immune response was next determined by analysis of the cytokine serum level of IFNγ in each animal using a commercial “sandwich” ELISA kit, and by FACS analysis of intrahepatic and intrasplenic (peripheral) lymphocytes levels.

[1] = test system: intrahepatic and intrasplenic lymphocytes; experiment: FACS analysis of intrahepatic and intrasplenic lymphocytes (NKT, CD4, CD8); assay type: in vivo, mice
Experimental: Splenocytes and intrahepatic lymphocytes were isolated as follows: livers and spleens were kept in RPMI-1640+FCS. Then spleens were crushed through a 70 μm nylon cell strainer (Falcon) and centrifuged (1250 rpm for 7 min) for the removal of cell debris. Red blood cells were lysed with 1 ml of cold 155 mM ammonium chloride lysis buffer and centrifuged (1250 rpm for 3 min). Splenocytes were resuspended with 1 ml RPMI+FCS. Cell viability by trypan blue staining was above 90%. For intrahepatic lymphocytes, livers were crushed through a stainless mesh (size 60, Sigma) and the cell suspension was placed in a 50-ml tube for 5 min. Lymphoprep (10 ml, Ficoll, Axis-Shield PoC AS, Oslo, Norway) was placed under similar volume of cell suspension in 50-ml tubes. Tubes were centrifuged at 1800 rpm for 18 min. Cells in the interface were collected and centrifuged at 1800 rpm for 10 min, to obtain a pellet of cells depleted of hepatocytes to a final volume of 250 μl. Approximately 1×10^6 cells/mouse liver, were recovered.
For ConA induced hepatitis experiments, flow cytometry was performed immediately following splenocyte and hepatic lymphocyte isolation using 1×10^6 lymphocytes in 100 μl PBS with 0.1% BSA. To determine the percentage of NKT lymphocytes, FITC anti-mouse CD3 and PE anti-mouse NK1.1 antibodies were used (eBioscience, USA). CD4 and CD8 subsets were detected using FITC anti-mouse CD3 and PE-anti-mouse CD4 or CD8 antibodies. Cells were incubated for 30 min at 4° C. in the dark, washed, and resuspended in 200 μl of PBS with 0.1% BSA. Analytical cell sorting was performed for 1×10^6 cells from each group using a fluorescence-activated cell sorter (FACSTAR plus, Becton Dickinson). Only live cells were counted, and unstained cells served as controls for background fluorescence. Gates were set on the forward and side scatter to exclude dead cells and red blood cells. Data were analyzed using either the Consort 30 two-color contour plot program (Becton Dickinson, Oxnard, Calif.) or the CELLQuest 25 program.
as §2

ConA induced hepatitis = ConA induced hepatitis model: serum AST and ALT (liver injury); assay type: in vivo, mice; settings: for enzyme levels (serum ALT and AST): Con A
Experimental: as §1
Con A was purchased from MP Biomedicals (Ohio, USA), was dissolved (0.5 mg, 20 mg/kg) in 200 μl of 50 mM Tris pH 7, 150 mM NaCl, 4 mM CaCl2, and was injected intravenously into mice (tail vain). Sera from individual mice were obtained 8 or 20 h after Con A injection. Serum activities of alanine aminotransferase (ALT) and aspartate aminotransferase (AST) were measured by an automatic analyzer.
To determine the clinical and immunological effect of the novel synthetic compounds of the invention, immune-mediated hepatitis was examined using the ConA induced hepatitis model. Therefore, the different synthetic and natural derivatives of β-glycolipids of Formula II, III and IV [AD2897 (ALIB-97), AD2898, and AD2899, respectively], were examined using seven groups of C57Bl/6 mice, as summarized by Table 1. Mice in experimental groups A-G (eight mice in each group) were injected with ConA. Group A mice were administered with 100 μl intraperitoneal injection of solvent only [15% Cremophor EL/15% ethanol/70% PBS](C:E). Mice in groups B, C, D, E, F, and G were administered with intraperitoneal injection of 1 μg or 10 μg of each of the three analogs Formulated in solvent as described in Experimental Procedures. Animals were sacrificed and examined.
In order to evaluate the potential beneficial effect of the three novel analogues of the invention on immune-mediated hepatitis, the effect of treatment with two concentrations of the three synthetic analogs on liver damage in all tested groups was assessed by determination of serum aspartate aminotransferase (AST), and alanine aminotransferase (ALT) levels.

[2] = ConA induced hepatitis, C57Bl/6 mice, intraperitoneal, low dosage 1 μg/mice
[3] = B6 mice, intraperitoneal, 8 h, p<0.05
[4] = B6 mice, oral administration, p<0.05
[5] = B6 mice, intraperitoneal, Con A hepatitis, p<0.05
[6] = B6 mice, oral administration, 20 h after Con A injection, vs control p<0.01
[7] = ConA induced hepatitis, C57Bl/6 mice, intraperitoneal, 10 μg/mice

SMILES: CCCCCCCCCCCCCC=CC(O)C(CO[C@@H]1OC(CO)[C@@H](O)C(O)C1O)NC(=S)NC12CC3CC(CC(C3)C1)C2 (stereo in doubt) [ALIB-97, N-adamantyl-N′-glucosylsphingosine thiourea]
- serum AST (ob/ob mice; day 30, 15 μg per os daily): 289 u/L
- serum ALT (ob/ob mice; day 30, 45 μg per os daily, vehicle group A 370, p<0.05): 165 u/L
- serum AST (ob/ob mice; day 30, 45 μg per os daily): 124 u/L
- IFN-γ secretion (mouse splenocytes; CD1d−/− splenocytes): absence
- IFN-γ secretion (mouse splenocytes; Jα18−/− splenocytes): absence
- activation of IFN-γ secretion (mouse splenocytes; mouse (B6) splenocytes, 100 ng): more than 9 fold
- serum IFN-γ levels (IFN-γ; B6 mice, intraperitoneal): marked decrease
- serum IFN-γ levels (IFN-γ; B6 mice, oral administration, after 20 hours, vs control p<0.01): significant decrease
- serum IFN-γ levels (IFN-γ; CD1d−/− KO mice, intraperitoneal): did not significantly alter
- IFNγ serum levels (IFN-γ; [2]): decrease
- serum IFN-γ levels (IFN-γ; Jα18−/− mice, intraperitoneal): substantial increase
- splenic CD3/NKT cells ([1]; B6 mice, intraperitoneal, 8 h, p<0.01): significantly reduced
- decrease of hepatic CD3/NKT cells [1, 3]: more than 55%
- splenic CD3/CD4 cells [1, 3]: significantly reduced
- splenic CD3/CD4 cells ([1]; B6 mice, intraperitoneal, 20 h): not affected
- increase of hepatic CD3/CD4 cells ([1]; B6 mice, intraperitoneal, 20 h, p=0.01): 33%
- hepatic CD3/CD8 lymphocytes ([1]; B6 mice, oral administration): unaffected
- decrease in hepatic CD3/NK1.1 lymphocytes ([1]; B6 mice, oral administration, after 8 hours, p<0.05): 73%
- increase of splenic CD3/NK1.1 lymphocytes [1, 4]: > 100%
- reduction of splenic CD3/CD8 cells [1, 4]: 30%
- reduction of splenic CD3/CD4 cells ([1]; B6 mice, oral administration, p=0.07): 23%
- decrease in hepatic CD3/CD4 lymphocyte ratio ([1]; B6 mice, oral administration, p=0.08): 20%
- intrahepatic NKT cell levels [1, 2]: decrease
- intrahepatic/peripheral ratio of NKT cells [1, 2]: decrease
- peripheral/intrahepatic ratio of the CD4/CD8 ratio [1, 2]: increase
- reduction of serum ALT levels (ConA induced hepatitis; [5]): more than 60%
- reduction of serum AST levels (ConA induced hepatitis; [5]): more than 60%
- serum ALT levels (ConA induced hepatitis; [6]): significantly reduced
- serum AST levels (ConA induced hepatitis; [6]): significantly reduced
- enzyme levels (serum ALT and AST) (ConA induced hepatitis; CD1d−/− mice, intraperitoneal): did not significantly alter
- serum ALT levels (ConA induced hepatitis; [7]): decreased
- serum AST levels (ConA induced hepatitis; [7]): decreased
- liver damage induced by Con A treatment (ConA induced hepatitis; Jα18 KO mice): exacerbated
- enzyme levels (serum ALT and AST) (ConA induced hepatitis; Jα18−/− mice, intraperitoneal): did not significantly alter
